In BindingDB's records for doi:10.1016/j.bmc.2004.12.045 (Cnrs, 2005) one finds IC50 data, which are given here for 21 molecules.

SMILES strings stand for the structures. Where a name gives a salt, the structure may show the parent alone.

For this assay, the target named is Glycogen synthase kinase-3 beta (Sus scrofa). Nature of the assay: Kinase activities were assayed in buffers containing substrate, enzyme, and inhibitor at 30 °C in the presence of 15 uM ATP/ [gamma-32P] ATP. 32P incorporation was measured with a scintillation counter. The IC50 is the inhibitor concentration, which inhibits 50% of kinase activity that catalyzes the transfer of the terminal phosphate from 32P l. To be noted: pH 7.5.
For `NCc1nc2c(c3c1[nH]c1ccccc13)CNC2=O` [8-(aminomethyl)-4,7,10-triazatetracyclo[7.7.0.0^{2,6}.0^{11,16}]hexadeca-1(9),2(6),7,11(16),12,14-hexaen-5-one hydrochloride], the half-inhibitory concentration (IC50) was 5.5 µM.
In the case of `Cc1nc2c(c3c4ccccc4n(CCN(C)C)c13)CNC2=O` [10-[2-(dimethylamino)ethyl]-8-methyl-4,7,10-triazatetracyclo[7.7.0.0^{2,6}.0^{11,16}]hexadeca-1(9),2(6),7,11(16),12,14-hexaen-5-one] it was 7 µM; in that of `Cc1c2c(c(CNC(=O)CN(C)C)c3c4ccccc4n(COCC[Si](C)(C)C)c13)C(=O)N(Cc1ccccc1)C2=O` [N-[(2-benzyl-4-methyl-1,3-dioxo-5-{[2-(trimethylsilyl)ethoxy]methyl}-1H,2H,3H,5H-pyrrolo[3,4-b]carbazol-10-yl)methyl]-2-(dimethylamino)acetamide], more than 10 µM; in that of `Cc1cc2c(c3c1[nH]c1ccccc13)CNC2=O` [8-methyl-4,10-diazatetracyclo[7.7.0.0^{2,6}.0^{11,16}]hexadeca-1(9),2(6),7,11(16),12,14-hexaen-5-one], more than 10 µM.
In the case of `Cc1c2c(c(CNC(=O)CCN(C)C)c3c4ccccc4n(COCC[Si](C)(C)C)c13)C(=O)N(C)C2=O` [N-[(2,4-dimethyl-1,3-dioxo-5-{[2-(trimethylsilyl)ethoxy]methyl}-1H,2H,3H,5H-pyrrolo[3,4-b]carbazol-10-yl)methyl]-3-(dimethylamino)propanamide] it was more than 10 µM; in that of `Cc1cc2c(c3c4ccccc4n(COCC[Si](C)(C)C)c13)C(=O)N(CCN(C)C)C2=O` [2-[2-(dimethylamino)ethyl]-5-methyl-6-{[2-(trimethylsilyl)ethoxy]methyl}pyrrolo[3,4-c]carbazole-1,3(2H,6H)-dione], more than 10 µM; in that of `Cc1cc2c(c3c4ccccc4n(COCC[Si](C)(C)C)c13)CNC2=O` [5-Methyl-6-(2-trimethylsilanyl-ethoxymethyl)-1,2-dihydro-6H-pyrrolo[3,4-c]carbazol-3-one], more than 10 µM.
The figure for `O=C1c2nc(-c3ccccc3)c3[nH]c4ccccc4c3c2CN1Cc1ccccc1` [2-Benzyl-5-phenyl-1,2-dihydro-6H-2,4,6-triazacyclopenta[c]fluoren-3-one] is more than 10 µM; for `Cc1c2c(c(C#N)c3c4cc(Cl)ccc4n(COCC[Si](C)(C)C)c13)C(=O)N(C)C2=O` [8-chloro-2,4-dimethyl-1,3-dioxo-5-{[2-(trimethylsilyl)ethoxy]methyl}-1H,2H,3H,5H-pyrrolo[3,4-b]carbazole-10-carbonitrile] it is more than 10 µM.
On to `Cc1c2c(c(CN)c3c4ccccc4n(COCC[Si](C)(C)C)c13)C(=O)N(C)C2=O` [10-(aminomethyl)-2,4-dimethyl-5-{[2-(trimethylsilyl)ethoxy]methyl}-1H,2H,3H,5H-pyrrolo[3,4-b]carbazole-1,3-dione], for which the IC50 is more than 10 µM.
The figure for `Cc1c2c(c(CNC(=O)CN(C)C)c3c1[nH]c1ccccc13)C(=O)N(Cc1ccccc1)C2=O` [{[({2-benzyl-4-methyl-1,3-dioxo-1H,2H,3H,5H-pyrrolo[3,4-b]carbazol-10-yl}methyl)carbamoyl]methyl}dimethylazanium chloride] is more than 10 µM; for `Cc1c2c(c(CN)c3c4ccccc4n(COCC[Si](C)(C)C)c13)C(=O)N(Cc1ccccc1)C2=O` [10-(aminomethyl)-2-benzyl-4-methyl-5-{[2-(trimethylsilyl)ethoxy]methyl}-1H,2H,3H,5H-pyrrolo[3,4-b]carbazole-1,3-dione] it is more than 10 µM; for `Cc1c2c(c(CNC(=O)CN(C)C)c3c1[nH]c1ccccc13)C(=O)N(C)C2=O` [{[({2,4-dimethyl-1,3-dioxo-1H,2H,3H,5H-pyrrolo[3,4-b]carbazol-10-yl}methyl)carbamoyl]methyl}dimethylazanium chloride] it is more than 10 µM.
The figure for `Cc1cc(C)c(S(=O)(=O)NCc2nc3c(c4c2[nH]c2ccccc24)CNC3=O)c(C)c1` [2,4,6-Trimethyl-N-(3-oxo-1,2,3,6-tetrahydro-2,4,6-triaza-cyclopenta[c]fluoren-5-ylmethyl)-benzene-sulfonamide] is 1.5 µM; for `Cc1c2c(c(CNC(=O)CN(C)C)c3c4ccccc4n(COCC[Si](C)(C)C)c13)C(=O)N(C)C2=O` [N-[(2,4-dimethyl-1,3-dioxo-5-{[2-(trimethylsilyl)ethoxy]methyl}-1H,2H,3H,5H-pyrrolo[3,4-b]carbazol-10-yl)methyl]-2-(dimethylamino)acetamide] it is more than 10 µM.
In the case of `Cc1c2c(c(C#N)c3c4ccccc4n(COCC[Si](C)(C)C)c13)C(=O)N(C)C2=O` [2,4-dimethyl-1,3-dioxo-5-{[2-(trimethylsilyl)ethoxy]methyl}-1H,2H,3H,5H-pyrrolo[3,4-b]carbazole-10-carbonitrile] it was more than 10 µM; in that of `Cc1c2c(c(CNC(=O)CCN(C)C)c3c4ccccc4n(COCC[Si](C)(C)C)c13)C(=O)N(Cc1ccccc1)C2=O` [N-[(2-benzyl-4-methyl-1,3-dioxo-5-{[2-(trimethylsilyl)ethoxy]methyl}-1H,2H,3H,5H-pyrrolo[3,4-b]carbazol-10-yl)methyl]-3-(dimethylamino)propanamide], more than 10 µM.
In the case of `CN(C)CC(=O)NCc1nc2c(c3c1[nH]c1ccccc13)CNC2=O` [2-(dimethylamino)-N-({5-oxo-4,7,10-triazatetracyclo[7.7.0.0^{2,6}.0^{11,16}]hexadeca-1(9),2(6),7,11(16),12,14-hexaen-8-yl}methyl)acetamide], the IC50 is 8 µM.
The figure for `Cc1nc2c(c3c1[nH]c1ccccc13)CN(CCN(C)C)C2=O` [2-(2-Dimethylaminoethyl)-5-methyl-1,2-di-hydro-6H-2,4,6-triaza-cyclopenta[c]fluoren-3-one] is more than 10 µM.
As for `Cc1nc2c(c3c1[nH]c1ccccc13)CNC2=O` [5-Methyl-1,2-dihydro-6H-2,4,6-triaza-cyclopenta[c]fluoren-3-one], the IC50 is more than 10 µM.
In the case of `Cc1cc2c(c3c4ccccc4n(COCC[Si](C)(C)C)c13)C(=N)N(CCN(C)C)C2=O` [4-[2-(dimethylamino)ethyl]-3-imino-8-methyl-10-{[2-(trimethylsilyl)ethoxy]methyl}-4,10-diazatetracyclo[7.7.0.0^{2,6}.0^{11,16}]hexadeca-1(9),2(6),7,11(16),12,14-hexaen-5-one], the concentration for half-maximal inhibition (IC50) is more than 10 µM.

A word on the IC50: it is the concentration needed to halve the response being measured.
